The record followed here is patent US20240018125A1, “CYCLIC ISOTHIOUREA DERIVATIVES AS CXCR4 MODULATORS” (ERMIUM THERAPEUTICS, priority 2020, published 2024).

Structures can show the parent of a compound that is named as a salt. A value given as a limit tells only on which side of the number the result lay.

The assay concerns peripheral blood mononuclear cells (PBMCs) from healthy donors. The assay can be described thus: IFN production by R848-activated PBMCs, quantified with twINNE luciferase reporter cell line. It is filed as cell-based, human. The note with it: Homo sapiens, PBMC; read-out: IC50 of anti-inflammatory activity (IFN production by activated PBMCs). A digest of the protocol: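 Functional IFN was quantified by luciferase output from the twINNE ISRE-reporter line after 24 h on conditioned supernatants. Those supernatants came from human PBMCs (4.10^6/mL) pre-treated with compound and then stimulated for 24 h with 5 μg/mL resiquimod. IC50s were fitted by nonlinear variable-slope regression.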
(In general: A reporter such as luciferase makes a cellular process visible.)
For `c1ccc2c(c1)CN=C(SCCN1CCCCC1)N2` [Example 91, 2-((2-(piperidin-1-yl)ethyl)thio)-1,4-dihydroquinazoline dihydrochloride], the IC50 was at most 10 µM. The same measure for `Clc1ccc2c(c1)CN1C(CSC3=NCc4cccc(Br)c4N3)=CSC1=N2` [Example 92, 3-(((8-bromo-1,4-dihydroquinazolin-2-yl)thio)methyl)-7-chloro-5H-thiazolo[2,3-b]quinazoline dihydrochloride]: at most 10 µM. The same measure for `CCCCN1Cc2ccccc2N=C1SCC1=CSC2=NC(Cc3ccccc3)CN12` (stereo not drawn) [Example 93, 6-benzyl-3-(((3-butyl-3,4-dihydroquinazolin-2-yl)thio)methyl)-5,6-dihydroimidazo[2,1-b]thiazole dihydrochloride]: at most 10 µM; for `Clc1ccc(CC2CN3C(CSC4=NCc5ccccc5N4)=CSC3=N2)cc1` (stereo not drawn) [Example 94, 6-(4-chlorobenzyl)-3-(((1,4-dihydroquinazolin-2-yl)thio)methyl)-5,6-dihydroimidazo[2,1-b]thiazole dihydrochloride]: at most 10 µM; for `CC1(C)c2ccccc2N=C2SC=C(CSC3=NCc4ccccc4N3)N21` [Example 95, 3-(((1,4-dihydroquinazolin-2-yl)thio)methyl)-5,5-dimethyl-5H-thiazolo[2,3-b]quinazoline dihydrochloride]: at most 10 µM. The same measure for `Cl.c1ccc2c(c1)CN=C(SCc1csc3nc4ccccc4n13)N2` [Example 96, 3-(((3,4-dihydroquinazolin-2-ylthio)methyl)benzo[4,5]imidazo[2,1-b]thiazole hydrochloride]: over 32 µM. For the molecule `CN1CCC(SC2=NC(C)(C)c3ccccc3N2)C1` (stereo not drawn) [Example 98, 4,4-dimethyl-2-((1-methylpyrrolidin-3-yl)thio)-1,4-dihydroquinazoline dihydrochloride], the IC50 was over 32 µM. Next, `CCCCN1C(SCC2=CSC3=NC(Cc4ccccc4)CN23)=NCc2ccccc21` (stereo not drawn) [Example 99, 6-benzyl-3-(((1-butyl-1,4-dihydroquinazolin-2-yl)thio)methyl)-5,6-dihydroimidazo[2,1-b]thiazole dihydrochloride]: at most 10 µM.

In the case of `CN1CCC(SC2=NCc3ccccc3N2)C1` (stereo not drawn) [Example 100, 2-((1-methylpyrrolidin-3-yl)thio)-1,4-dihydroquinazoline dihydrochloride], the IC50 is at most 10 µM. With `c1ccc(N2CCC(SC3=NCc4ccccc4N3)C2)cc1` (stereo not drawn) [Example 101, 2-((1-phenylpyrrolidin-3-yl)thio)-1,4-dihydroquinazoline hydrochloride], the IC50 is 10 to 32 µM. Next, `FC(F)CN1CCC(SC2=NCc3ccccc3N2)C1` (stereo not drawn) [Example 102, 2-((1-(2,2-difluoroethyl)pyrrolidin-3-yl)thio)-1,4-dihydroquinazoline hydrochloride]: 10 to 32 µM. The same measure for `CN1CCC(SC2=NCc3cc(Cl)ccc3N2)C1` (stereo not drawn) [Example 103, 6-chloro-2-((1-methylpyrrolidin-3-yl)thio)-1,4-dihydroquinazoline dihydrochloride]: at most 10 µM; for `CCN1CCC(SC2=NCc3ccccc3N2)C1` (stereo not drawn) [Example 104, 2-((1-ethylpyrrolidin-3-yl)thio)-1,4-dihydroquinazoline dihydrochloride]: at most 10 µM; for `CN1CCC(SC2=NCCc3ccccc3N2)C1` (stereo not drawn) [Example 105, 2-((1-methylpyrrolidin-3-yl)thio)-4,5-dihydro-1H-benzo[d][1,3]diazepine dihydrochloride]: 10 to 32 µM. Consider `c1ccc(N2CCC(SC3=NCc4ccccc4CN3)C2)cc1` (stereo not drawn) [Example 106, 3-((1-phenylpyrrolidin-3-yl)thio)-2,5-dihydro-1H-benzo[e][1,3]diazepine hydrochloride], for which the IC50 lay within 10 to 32 µM. The same measure for `CN1CCCC1CSC1=NCc2ccccc2N1` (stereo not drawn) [Example 108, 2-(((1-methylpyrrolidin-2-yl)methyl)thio)-1,4-dihydroquinazoline dihydrochloride]: 10 to 32 µM.

Regarding `C1=C(CSC2=NCc3ccccc3N2)N2C[C@H](Cc3c[nH]c4ccccc34)N=C2S1` [Example 109, (S)-6-((1H-indol-3-yl)methyl)-3-(((1,4-dihydroquinazolin-2-yl)thio)methyl)-5,6-dihydroimidazo[2,1-b]thiazole dihydrochloride], the IC50 is at most 10 µM. With `IC1=C(CSC2=NCc3ccccc3N2)N2CC(Cc3ccccc3)N=C2S1` (stereo not drawn) [Example 110, 6-benzyl-3-(((1,4-dihydroquinazolin-2-yl)thio)methyl)-2-iodo-5,6-dihydroimidazo[2,1-b]thiazole dihydrochloride], the 50% inhibitory concentration (IC50) was at most 10 µM. The same measure for `Clc1cccc(C[C@H]2CN3C(CSC4=NCc5ccccc5N4)=CSC3=N2)c1` [Example 111, (S)-6-(3-chlorobenzyl)-3-(((1,4-dihydroquinazolin-2-yl)thio)methyl)-5,6-dihydroimidazo[2,1-b]thiazole dihydrochloride]: at most 10 µM; for `Cc1cccc(CC2CN3C(CSC4=NCc5ccccc5N4)=CSC3=N2)c1` (stereo not drawn) [Example 112, 3-(((1,4-dihydroquinazolin-2-yl)thio)methyl)-6-(3-methylbenzyl)-5,6-dihydroimidazo[2,1-b]thiazole dihydrochloride]: at most 10 µM; for `CC1N=C(SCC2=CSC3=NC(Cc4ccccc4)CN23)Nc2ccccc21` (stereo not drawn) [Example 113, 6-benzyl-3-(((4-methyl-1,4-dihydroquinazolin-2-yl)thio)methyl)-5,6-dihydroimidazo[2,1-b]thiazole dihydrochloride]: at most 10 µM. The same measure for `Clc1ccc2c(c1)CN=C(SCC1=CSC3=NC(Cc4ccccc4)CN13)N2` (stereo not drawn) [Example 114, 6-benzyl-3-(((6-chloro-1,4-dihydroquinazolin-2-yl)thio)methyl)-5,6-dihydroimidazo[2,1-b]thiazole dihydrochloride]: at most 10 µM. The same measure for `Clc1nccc2sc(CSC3=NCc4ccccc4N3)cc12` [Example 116, 4-chloro-2-(((1,4-dihydroquinazolin-2-yl)thio)methyl)thieno[3,2-c]pyridine dihydrochloride]: at most 10 µM; for `Fc1cccc2c1CN=C(SCC1=CSC3=NC(Cc4ccccc4)CN13)N2` (stereo not drawn) [Example 117, 6-benzyl-3-(((5-fluoro-1,4-dihydroquinazolin-2-yl)thio)methyl)-5,6-dihydroimidazo[2,1-b]thiazole dihydrochloride]: at most 10 µM; for `Clc1cccc2c1CN=C(SCC1=CSC3=NC(Cc4ccccc4)CN13)N2` (stereo not drawn) [Example 118, 6-benzyl-3-(((5-chloro-1,4-dihydroquinazolin-2-yl)thio)methyl)-5,6-dihydroimidazo[2,1-b]thiazole dihydrochloride]: at most 10 µM. Turning to `Brc1ccc2c(c1)NC(SCC1=CSC3=NC(Cc4ccccc4)CN13)=NC2` (stereo not drawn) [Example 119, 6-benzyl-3-(((7-bromo-1,4-dihydroquinazolin-2-yl)thio)methyl)-5,6-dihydroimidazo[2,1-b]thiazole dihydrochloride], the half-inhibitory concentration (IC50) was at most 10 µM. The same measure for `C1=C(CSC2=NCc3ccccc3N2)N2CC(c3ccccc3)N=C2S1` (stereo not drawn) [Example 120, 3-(((1,4-dihydroquinazolin-2-yl)thio)methyl)-6-phenyl-5,6-dihydroimidazo[2,1-b]thiazole dihydrochloride]: at most 10 µM.

As usually defined, the IC50 is the concentration at which inhibition is half-maximal.
